Source: US20230025280A1, “PH RESPONSIVE COMPOSITIONS, FORMULATIONS, AND METHODS OF IMAGING A TUMOR” (ONCONANO MEDICINE, INC, priority 2019, published 2023)
“Also recorded” adds a separate entry of the source.

Columns and labels:
solid neoplasia = assay: Tumor imaging in dogs with solid neoplasia; type: in vivo, dog
Procedure: Materials and methods: After evaluation and recruitment for the study, dog-patients underwent (A) pre-operation analysis to identify possible types of lesion, and (B) Compound 1 tracer was administrated at 0.5 to 2.0 mg/kg, 18-78 hours prior to surgery. During the surgery (C) intra-operative imaging was performed using a Hamamatsu PDE or custom NIR camera before and after tumor removal (or after limb amputations). Resected tissues were (D) imaged with a LI-COR Pearl Imaging station and tumor-to-normal-tissue ratios were calculated accordingly. The resected tissues were then (E) preserved for histopathology validation. Safety was assessed separately in terms of adverse effects through physical examinations, laboratory tests and the recording of adverse events from infusion through discharge from hospital.
Results: A summary of the data from spayed or neutered dog patients that were recruited for the study is shown below (Table 16). Results from a total of seven dogs of different breeds, aged 4-12 years, body weights ranging from 20.9-59.5 kg, and with a range of tumors ware presented, including instances where more than one tumor was present. Doses studied thus far ranged from 0.5-2.0 mg/kg. […] Both acute and chronic adverse effects were monitored from the time of injection through discharge of the animals from the hospital and follow-up appointments (to remove sutures) and noted.

HNSCC specimen = assay: Fluorescence microscopy after spraying Compound 1 onto freshly frozen tissue sections; set-up: species or system human; conditions: sprayed ex vivo onto freshly frozen HNSCC sections
Source text: FIGS. 18A-18B describes fluorescence microscopy to confirm tumor-specific activation of Compound 1. […] DAPI was applied for nuclear staining (a) and Compound 1 for fluorescence visualization (b). […] RFU: relative fluorescence units.

In the case of “PEO90-140-b-P(DBA60-150-r-ICG0-3-r-AMA0-3) [Compound 1]”, the “Fluorescent signals in diseased tissues” value (solid neoplasia; 7 dogs, 0.5-2.0 mg/kg, 24 or 72 hr before surgery) was “fluorescent signals were observed where expected for diseased tissues”, the “Detection of occult disease” value (solid neoplasia; one dog-patient, metastatic popliteal lymph node) was “occult disease was identified; also recorded: identification of occult disease” and the “Fluorescence delineation on tissue sections” value (HNSCC specimen) was “sharp delineation of fluorescence between the tumor and stromal tissue”.
